Reference: ChEMBL document CHEMBL1149697, “Identification of dissociated non-steroidal glucocorticoid receptor agonists” (Bioorg Med Chem Lett, 2007)

Tested on: HFF
Assay: Antiinflammatory activity assessed as inhibition of IL1 stimulated IL6 production in HFF cells by transrepression assay
Assay type: functional, cell-based
Conditions: Homo sapiens

Structure (SMILES) | EC50 [nM]
COc1ccc(F)cc1C(C)(C)CC(O)(Cc1ccc(C#N)cc1)C(F)(F)F (stereo not drawn) | > 2000
COc1ccc(F)cc1C(C)(C)CC(O)(Cc1cc(C)cc(C)c1C#N)C(F)(F)F (stereo not drawn) | 40
COc1ccc(F)cc1C(C)(C)CC(O)(Cc1cc(Cl)cc(C#N)c1)C(F)(F)F (stereo not drawn) | > 2000
COc1ccc(F)cc1C(C)(C)CC(O)(Cc1cc(C)cc(Cl)c1)C(F)(F)F (stereo not drawn) | 125
COc1ccc(F)cc1C(C)(C)CC(O)(Cc1ccc(C#N)cc1F)C(F)(F)F (stereo not drawn) | > 2000
COc1ccc(F)cc1C(C)(C)CC(O)(Cc1ccc(C#N)c2ccccc12)C(F)(F)F (stereo not drawn) | 70
COc1ccc(F)cc1C(C)(C)CC(O)(Cc1ccc(C#N)cc1Cl)C(F)(F)F (stereo not drawn) | 20
COc1ccc(F)cc1C(C)(C)CC(O)(Cc1cc(C)c(C#N)c(C)c1)C(F)(F)F (stereo not drawn) | 4

Tested on: HFF
Assay: Antiinflammatory activity assessed as inhibition of IL6 production in HFF cells by transrepression assay relative to dexamethasone
Assay type: functional, Homo sapiens
Conditions: not given

Structure (SMILES) | Efficacy [%]
COc1ccc(F)cc1C(C)(C)CC(O)(Cc1ccc(C#N)cc1)C(F)(F)F (stereo not drawn) | 0
COc1ccc(F)cc1C(C)(C)CC(O)(Cc1cc(C)cc(C)c1C#N)C(F)(F)F (stereo not drawn) | 83
COc1ccc(F)cc1C(C)(C)CC(O)(Cc1cc(Cl)cc(C#N)c1)C(F)(F)F (stereo not drawn) | 46
COc1ccc(F)cc1C(C)(C)CC(O)(Cc1cc(C)cc(Cl)c1)C(F)(F)F (stereo not drawn) | 79
COc1ccc(F)cc1C(C)(C)CC(O)(Cc1ccc(C#N)cc1F)C(F)(F)F (stereo not drawn) | 40
COc1ccc(F)cc1C(C)(C)CC(O)(Cc1ccc(C#N)c2ccccc12)C(F)(F)F (stereo not drawn) | 92
COc1ccc(F)cc1C(C)(C)CC(O)(Cc1ccc(C#N)cc1Cl)C(F)(F)F (stereo not drawn) | 60
COc1ccc(F)cc1C(C)(C)CC(O)(Cc1cc(C)c(C#N)c(C)c1)C(F)(F)F (stereo not drawn) | 95

Tested on: HFF
Assay: Antiinflammatory activity assessed as upregulation of aromatase in HFF cells by transactivation assay
Assay type: functional, cell-based
Conditions: Homo sapiens

Structure (SMILES) | EC50 [nM]
COc1ccc(F)cc1C(C)(C)CC(O)(Cc1ccc(C#N)cc1)C(F)(F)F (stereo not drawn) | > 2000
COc1ccc(F)cc1C(C)(C)CC(O)(Cc1cc(C)cc(C)c1C#N)C(F)(F)F (stereo not drawn) | 250
COc1ccc(F)cc1C(C)(C)CC(O)(Cc1cc(Cl)cc(C#N)c1)C(F)(F)F (stereo not drawn) | 4750
COc1ccc(F)cc1C(C)(C)CC(O)(Cc1cc(C)cc(Cl)c1)C(F)(F)F (stereo not drawn) | 245
COc1ccc(F)cc1C(C)(C)CC(O)(Cc1ccc(C#N)cc1F)C(F)(F)F (stereo not drawn) | 660
COc1ccc(F)cc1C(C)(C)CC(O)(Cc1ccc(C#N)c2ccccc12)C(F)(F)F (stereo not drawn) | 260
COc1ccc(F)cc1C(C)(C)CC(O)(Cc1ccc(C#N)cc1Cl)C(F)(F)F (stereo not drawn) | 30
COc1ccc(F)cc1C(C)(C)CC(O)(Cc1cc(C)c(C#N)c(C)c1)C(F)(F)F (stereo not drawn) | 8

Tested on: HFF
Assay: Antiinflammatory activity assessed as upregulation of aromatase in HFF cells by transactivation assay relative to dexamethasone
Assay type: functional, Homo sapiens
Design: concentration or dose not given beside the values
Conditions: not given

Structure (SMILES) | Activity [%]
COc1ccc(F)cc1C(C)(C)CC(O)(Cc1ccc(C#N)cc1)C(F)(F)F (stereo not drawn) | 0
COc1ccc(F)cc1C(C)(C)CC(O)(Cc1cc(C)cc(C)c1C#N)C(F)(F)F (stereo not drawn) | 75
COc1ccc(F)cc1C(C)(C)CC(O)(Cc1cc(Cl)cc(C#N)c1)C(F)(F)F (stereo not drawn) | 53
COc1ccc(F)cc1C(C)(C)CC(O)(Cc1cc(C)cc(Cl)c1)C(F)(F)F (stereo not drawn) | 80
COc1ccc(F)cc1C(C)(C)CC(O)(Cc1ccc(C#N)cc1F)C(F)(F)F (stereo not drawn) | 15
COc1ccc(F)cc1C(C)(C)CC(O)(Cc1ccc(C#N)c2ccccc12)C(F)(F)F (stereo not drawn) | 103
COc1ccc(F)cc1C(C)(C)CC(O)(Cc1ccc(C#N)cc1Cl)C(F)(F)F (stereo not drawn) | 20
COc1ccc(F)cc1C(C)(C)CC(O)(Cc1cc(C)c(C#N)c(C)c1)C(F)(F)F (stereo not drawn) | 115

Organism: Homo sapiens
Assay: Selectivity ratio of human GR over human PR
Conditions: not given

Structure (SMILES) | Ratio IC50
COc1ccc(F)cc1C(C)(C)CC(O)(Cc1cc(C)cc(C)c1C#N)C(F)(F)F (stereo not drawn) | 225
COc1ccc(F)cc1C(C)(C)CC(O)(Cc1cc(C)c(C#N)c(C)c1)C(F)(F)F (stereo not drawn) | 35

Target: T1, Glucocorticoid receptor (Homo sapiens, UniProt P04150)
T1 sequence (P04150 whole entry): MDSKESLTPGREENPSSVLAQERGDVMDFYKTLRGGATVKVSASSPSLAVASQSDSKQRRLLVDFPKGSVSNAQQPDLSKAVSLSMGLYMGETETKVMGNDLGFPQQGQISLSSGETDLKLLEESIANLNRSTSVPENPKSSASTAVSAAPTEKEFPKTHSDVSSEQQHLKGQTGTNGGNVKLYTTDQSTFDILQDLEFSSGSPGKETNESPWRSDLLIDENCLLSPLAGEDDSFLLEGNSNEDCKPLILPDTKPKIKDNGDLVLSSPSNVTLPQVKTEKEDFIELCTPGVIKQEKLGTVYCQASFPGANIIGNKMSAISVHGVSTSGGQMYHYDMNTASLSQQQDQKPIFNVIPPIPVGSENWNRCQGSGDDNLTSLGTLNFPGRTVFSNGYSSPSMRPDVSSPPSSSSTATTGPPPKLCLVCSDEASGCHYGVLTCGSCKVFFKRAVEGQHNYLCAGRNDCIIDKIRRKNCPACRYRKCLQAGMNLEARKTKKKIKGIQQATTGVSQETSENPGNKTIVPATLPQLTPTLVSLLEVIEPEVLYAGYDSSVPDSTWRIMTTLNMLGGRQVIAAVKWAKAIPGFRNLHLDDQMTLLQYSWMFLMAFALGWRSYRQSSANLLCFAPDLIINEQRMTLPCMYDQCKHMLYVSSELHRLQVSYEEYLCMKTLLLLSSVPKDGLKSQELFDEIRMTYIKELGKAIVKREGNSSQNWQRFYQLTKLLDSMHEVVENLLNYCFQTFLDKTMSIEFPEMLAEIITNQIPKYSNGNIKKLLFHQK
Assay: not given
Conditions: not given

Structure (SMILES) | IC50 [nM]
COc1ccc(F)cc1C(C)(C)CC(O)(Cc1ccc(C#N)cc1)C(F)(F)F (stereo not drawn) | 30
COc1ccc(F)cc1C(C)(C)CC(O)(Cc1cc(C)cc(C)c1C#N)C(F)(F)F (stereo not drawn) | 8
COc1ccc(F)cc1C(C)(C)CC(O)(Cc1cc(Cl)cc(C#N)c1)C(F)(F)F (stereo not drawn) | 27
COc1ccc(F)cc1C(C)(C)CC(O)(Cc1cc(C)cc(Cl)c1)C(F)(F)F (stereo not drawn) | 46
COc1ccc(F)cc1C(C)(C)CC(O)(Cc1ccc(C#N)cc1F)C(F)(F)F (stereo not drawn) | 22
COc1ccc(F)cc1C(C)(C)CC(O)(Cc1ccc(C#N)c2ccccc12)C(F)(F)F (stereo not drawn) | 21
COc1ccc(F)cc1C(C)(C)CC(O)(Cc1ccc(C#N)cc1Cl)C(F)(F)F (stereo not drawn) | 17
COc1ccc(F)cc1C(C)(C)CC(O)(Cc1cc(C)c(C#N)c(C)c1)C(F)(F)F (stereo not drawn) | 11

Target: T2, Progesterone receptor (Homo sapiens, UniProt P06401)
T2 sequence (P06401 whole entry): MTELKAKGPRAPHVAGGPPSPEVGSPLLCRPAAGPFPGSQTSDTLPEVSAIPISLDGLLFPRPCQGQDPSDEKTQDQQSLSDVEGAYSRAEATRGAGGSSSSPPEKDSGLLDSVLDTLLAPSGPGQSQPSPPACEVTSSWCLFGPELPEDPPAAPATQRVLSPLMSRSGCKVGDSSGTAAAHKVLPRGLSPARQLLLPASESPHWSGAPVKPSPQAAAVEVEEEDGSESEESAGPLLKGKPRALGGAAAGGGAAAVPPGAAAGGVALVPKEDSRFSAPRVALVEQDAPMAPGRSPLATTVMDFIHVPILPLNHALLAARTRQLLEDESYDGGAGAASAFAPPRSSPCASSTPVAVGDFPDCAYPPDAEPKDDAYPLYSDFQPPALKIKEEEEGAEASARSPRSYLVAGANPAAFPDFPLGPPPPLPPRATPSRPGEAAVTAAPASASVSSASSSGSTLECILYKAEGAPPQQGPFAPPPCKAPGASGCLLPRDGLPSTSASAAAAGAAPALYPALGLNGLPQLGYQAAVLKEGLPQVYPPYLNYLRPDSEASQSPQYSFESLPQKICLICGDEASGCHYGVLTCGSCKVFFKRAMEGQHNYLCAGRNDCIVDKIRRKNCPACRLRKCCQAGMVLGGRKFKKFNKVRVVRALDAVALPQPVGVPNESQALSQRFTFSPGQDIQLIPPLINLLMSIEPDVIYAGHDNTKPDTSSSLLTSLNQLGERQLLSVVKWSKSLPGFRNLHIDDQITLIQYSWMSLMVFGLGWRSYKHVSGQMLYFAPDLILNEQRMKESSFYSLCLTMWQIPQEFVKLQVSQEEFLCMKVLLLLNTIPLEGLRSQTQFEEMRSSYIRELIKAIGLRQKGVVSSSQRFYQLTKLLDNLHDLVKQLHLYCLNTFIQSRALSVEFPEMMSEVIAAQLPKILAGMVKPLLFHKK
Assay: Displacement of TAMRA labeled mifepristone at human progesterone receptor in insect cell
Conditions: not given

Structure (SMILES) | IC50 [nM]
COc1ccc(F)cc1C(C)(C)CC(O)(Cc1ccc(C#N)cc1)C(F)(F)F (stereo not drawn) | 345
COc1ccc(F)cc1C(C)(C)CC(O)(Cc1cc(C)cc(C)c1C#N)C(F)(F)F (stereo not drawn) | 1800
COc1ccc(F)cc1C(C)(C)CC(O)(Cc1cc(Cl)cc(C#N)c1)C(F)(F)F (stereo not drawn) | > 2000
COc1ccc(F)cc1C(C)(C)CC(O)(Cc1cc(C)cc(Cl)c1)C(F)(F)F (stereo not drawn) | > 2000
COc1ccc(F)cc1C(C)(C)CC(O)(Cc1ccc(C#N)cc1F)C(F)(F)F (stereo not drawn) | 280
COc1ccc(F)cc1C(C)(C)CC(O)(Cc1ccc(C#N)c2ccccc12)C(F)(F)F (stereo not drawn) | 325
COc1ccc(F)cc1C(C)(C)CC(O)(Cc1ccc(C#N)cc1Cl)C(F)(F)F (stereo not drawn) | 140
COc1ccc(F)cc1C(C)(C)CC(O)(Cc1cc(C)c(C#N)c(C)c1)C(F)(F)F (stereo not drawn) | 390

Target: T3, Mineralocorticoid receptor (Homo sapiens, UniProt P08235)
T3 sequence (P08235 whole entry): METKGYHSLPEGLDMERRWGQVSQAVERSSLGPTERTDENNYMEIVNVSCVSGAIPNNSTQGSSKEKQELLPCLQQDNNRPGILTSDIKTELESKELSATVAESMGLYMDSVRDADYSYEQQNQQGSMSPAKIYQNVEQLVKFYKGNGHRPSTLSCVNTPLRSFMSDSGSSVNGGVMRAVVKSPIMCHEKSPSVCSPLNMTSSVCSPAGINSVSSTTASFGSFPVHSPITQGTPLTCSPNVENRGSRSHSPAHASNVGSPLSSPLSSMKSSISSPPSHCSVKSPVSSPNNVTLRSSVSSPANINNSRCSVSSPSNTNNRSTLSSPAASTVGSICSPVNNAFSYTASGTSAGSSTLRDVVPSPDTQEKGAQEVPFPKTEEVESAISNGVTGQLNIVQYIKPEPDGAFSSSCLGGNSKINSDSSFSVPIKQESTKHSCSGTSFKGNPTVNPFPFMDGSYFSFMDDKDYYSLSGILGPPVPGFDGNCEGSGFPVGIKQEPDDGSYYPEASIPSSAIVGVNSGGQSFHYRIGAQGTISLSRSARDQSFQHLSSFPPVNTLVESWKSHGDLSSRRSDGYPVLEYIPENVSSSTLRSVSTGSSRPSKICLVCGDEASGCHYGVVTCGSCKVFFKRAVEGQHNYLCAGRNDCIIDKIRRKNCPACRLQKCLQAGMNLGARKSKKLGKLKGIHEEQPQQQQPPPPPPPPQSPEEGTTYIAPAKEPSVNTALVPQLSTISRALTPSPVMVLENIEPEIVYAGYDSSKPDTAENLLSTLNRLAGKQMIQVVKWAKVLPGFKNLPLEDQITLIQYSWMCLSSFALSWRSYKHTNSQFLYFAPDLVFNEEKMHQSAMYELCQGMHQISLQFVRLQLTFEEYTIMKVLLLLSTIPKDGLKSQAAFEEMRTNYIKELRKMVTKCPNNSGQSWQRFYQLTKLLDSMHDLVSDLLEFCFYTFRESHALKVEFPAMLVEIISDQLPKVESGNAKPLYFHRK
Assay: Displacement of TAMRA labeled dexamethasone at human mineralocorticoid receptor in insect cell
Conditions: not given

Structure (SMILES) | IC50 [nM]
COc1ccc(F)cc1C(C)(C)CC(O)(Cc1ccc(C#N)cc1)C(F)(F)F (stereo not drawn) | 510
COc1ccc(F)cc1C(C)(C)CC(O)(Cc1cc(C)cc(C)c1C#N)C(F)(F)F (stereo not drawn) | 250
COc1ccc(F)cc1C(C)(C)CC(O)(Cc1cc(Cl)cc(C#N)c1)C(F)(F)F (stereo not drawn) | 730
COc1ccc(F)cc1C(C)(C)CC(O)(Cc1cc(C)cc(Cl)c1)C(F)(F)F (stereo not drawn) | 940
COc1ccc(F)cc1C(C)(C)CC(O)(Cc1ccc(C#N)cc1F)C(F)(F)F (stereo not drawn) | 500
COc1ccc(F)cc1C(C)(C)CC(O)(Cc1ccc(C#N)c2ccccc12)C(F)(F)F (stereo not drawn) | 430
COc1ccc(F)cc1C(C)(C)CC(O)(Cc1ccc(C#N)cc1Cl)C(F)(F)F (stereo not drawn) | 320
COc1ccc(F)cc1C(C)(C)CC(O)(Cc1cc(C)c(C#N)c(C)c1)C(F)(F)F (stereo not drawn) | 300
